Data: patent EP1619246A1, “RNA dependent RNA polymerases from coronavirus and their use in molecular biology and drug screening” (Université de la Méditerranée, Aix-Marseille II, priority 2004, dated 2006)

Molecular target: SARS CoV nsp8 RNA dependent RNA polymerase, N-terminally His-tagged (SARS-CoV replicase residues 3920-4117), SEQ ID NO. 1 (Severe acute respiratory syndrome coronavirus, UniProt P0C6X7)
Test: biochemical
Type: biochemical

Row | Structure (SMILES) | nsp8 polymerase activity in presence of Rifampicine (inhibitor of the bacterial polymerase) | IC50 | Nsp8 activity inhibition in presence of 50 µM 3'-deoxy GTP
1 | CO[C@H]1/C=C/O[C@@]2(C)Oc3c(C)c(O)c4c(O)c(c(/C=N/N5CCN(C)CC5)c(O)c4c3C2=O)NC(=O)/C(C)=C\C=C\[C@H](C)[C@H](O)[C@@H](C)[C@@H](O)[C@@H](C)[C@H](OC(C)=O)[C@@H]1C [Rifampicine] | activity detected |  | 
2 | Nc1nc2c(ncn2[C@@H]2O[C@H](COP(=O)(O)OP(=O)(O)OP(=O)(O)O)C[C@H]2O)c(=O)[nH]1 [3'-deoxy GTP, 3'-deoxy-GTP] |  | ~0.08 µM | can be inhibited
